Measured values: PMC11514049, “The Tmem16a chloride channel is required for mucin maturation after secretion from goblet-like cells in the Xenopus tropicalis tadpole skin” (Scientific Reports, 2024)
Like-named read-outs stand apart in the source and are kept apart here.

What was measured:
[1] = target: X. tropicalis Tmem16a (Xenopus tropicalis, UniProt W8PFC5); assay: Whole-cell patch clamp (QPatch) of X. tropicalis Tmem16a transfected into HEK293 cells; format: cell-based
Protocol: We cloned and expressed full-length X. tropicalis tmem16a in HEK293 cells. At 48 h post-transfection, channel conductance and pharmacological characteristics were examined by whole-cell voltage clamp. Tmem16a channel activity was evoked using membrane depolarisation in the presence of intracellular calcium, and resultant whole-cell currents measured using chloride-selective buffers.
HEK Flp-In-293 null cells (Thermo Fisher) were stored, thawed and cultured as described by the supplier, but without antibiotic supplementation of the growth medium. For transfections, cells were seeded in 75 cm^2 vented culture flasks at a density of 0.018 × 10^6 cells per cm^2 and maintained at 37 °C in 5% CO2 for 24 h, to ensure approximately 40% confluence at the point of transfection. Cells were transfected with 6 µg of pCS2-tmem16a plasmid in a 1:6 volume ratio with transfection reagent GeneJammer (Agilent), according to the manufacturer’s protocol. Transfected cells were maintained in antibiotic-free growth medium at 37 °C in 5% CO2 for 24 h. The transfection medium was then aspirated, replaced with complete growth medium containing 1% penicillin-streptomycin (GIBCO), and cells cultured for a further 24 h at 37 °C in 5% CO2 to achieve 70–80% confluence prior to electrophysiology studies. HEK cells expressing Tmem16a were harvested using a 2:1 volume ratio of Detachin (AMSBio) and 0.05% Trypsin-EDTA (GIBCO), and resuspended in CHO serum-free medium (GIBCO) supplemented with 25 mM HEPES (GIBCO) and 0.04 mg ml^−1 trypsin inhibitor (Sigma Aldrich) to a density of 2.5-5.0 × 10^6 cells ml^−1. […] To prevent clumping of the suspended cells prior to assay, the cell suspension was maintained by stirring gently but continually at room temperature for 20 min to 2 hours.
Single cell whole-cell patch clamp recordings were performed using the QPatch planar patch-clamp system (Sophion Biosciences). The automated platform resuspended the cells in extracellular buffer containing NMDG-Cl (130 mM), HEPES (10 mM), CaCl2 (2 mM) and MgCl2 (1 mM), adjusted to pH 7.30 using HCl and 325 mOsm using sucrose. On establishing single-cell giga-Ohm seals, cell membranes were ruptured by suction pulse and dialysed with intracellular solution containing NMDG-Cl (130 mM), EGTA (20 mM), CaCl2 (20 mM; calculated to deliver a free intracellular [Ca^2+] of 338 nM (https://somapp.ucdmc.ucdavis.edu/pharmacology/bers/maxchelator/webmaxc/webmaxcE.htm) at 22 °C to achieve high Tmem16a-mediated current activation for testing inhibitor compounds), HEPES (10 mM), BAPTA (10 mM), MgCl2 (1 mM) and Mg-ATP (2 mM), adjusted to pH 7.25 using HCl and 325 mOsm using sucrose. The calcium activation curve was achieved by varying CaCl2 concentration from 0 to 25.7 mM to generate a 0-1000 nM range of free intracellular [Ca^2+].
Whole-cell recordings were performed from a resting membrane potential of - 70 mV, applied across the cell membrane between an intracellular (working) and extracellular (reference) electrode in each QPatch recording well. To activate Tmem16a currents, the membrane was depolarised once every 20 s for a duration of 1 s. For concentration-response experiments, this depolarising step was set to + 70 mV. To test current-voltage relationship, the depolarisations were varied between − 90 and + 90 mV in 20 mV increments. Signals were subject to fourth-order Bessel filtering (sampling frequency 10 kHz, cut-off 3 kHz). Capacitance and series resistance were monitored throughout the recordings; data was only accepted from wells in which these parameters remained stable.
All current data was captured at the end of the 1 s depolarising voltage step.

[2] = system: human TMEM16Aacd; settings: cited from earlier work
[3] = system: human TMEM16A; settings: cited from earlier work
[4] = system: background chloride current of sham HEK-293 transfects; assay: Whole-cell patch clamp of sham-transfected HEK cells (background chloride current); format: cell-based; settings: 100 µM CaCCinh-A01
Excerpt: Methods: Pharmacology data was generated from 16 QPatch runs. […] This definition of ‘transfected’ vs ‘untransfected’ was established by comparing transfected cell recordings with ‘sham’ transfects, i.e. cells that had undergone the same transfection process but with the omission of plasmid DNA (Supplementary Figure S1). […] Cells with these characteristics were deemed to be expressing X. tropicalis Tmem16a, and only recordings from successfully-transfected cells which additionally passed seal/series resistance and capacitance quality control criteria, were used in analysis of X. tropicalis Tmem16a currents.

[5] = system: Tmem16a; assay: Wholemount immunofluorescence for Tmem16a in tadpole skin after morpholino injection; format: in vivo, Xenopus tropicalis; settings: 15 ng MO injected into fertilised egg, tadpoles at NF38, vs MOC
Protocol: (§1) Embryos for microinjection were de-jellied for approximately five minutes in 0.1 X MMR containing 2% (w/v) L-cysteine (pH 7.8), and washed several times in 0.1 X MMR. Microinjections were performed at NF1/fertilised egg (or, where indicated in the text, NF4/8-cell stage) using a Picospritzer III microinjector (Intracel) to inject 1–4 nl volumes. During injection and for one hour after, embryos were maintained in 0.1 X MMR containing 2% (w/v) Ficoll™ 400 (Thermo Fisher). Antisense morpholino oligonucleotides (MO) and standard control MO (MOC) were designed by and purchased from Gene Tools LLC. MO sequences were: MOC 5′-[…]-3′; tmem16a splice MO 5’-[…]-3’. MOs were reconstituted to 20 ng nl^−1 in non-DEPC-treated nuclease-free water (Thermo Fisher) and stored in small aliquots in tightly-sealed vials at room temperature. MOs were heated at 65 °C for five minutes then vortexed before dilution/use, to ensure the MO was fully dissolved. […]
Wholemount chromogenic and fluorescence in situ hybridisation was performed as previously described[84],[85]. […] Chromogenic staining and fluorescence were visualised by stereomicroscopy (Leica M165 FC using Leica Application Suite X v5.2.2 software) and fluorescence by confocal imaging (Olympus IX81 using FV10-ASW v4.2 software). […] Fiji v2.14.0 software[88] was used to convert images into colours accesible to colour-blind readers.

[6] = system: MucXS secretion from tadpole skin; assay: Ionomycin-induced MucXS secretion into tadpole media (slot blot, anti-MucXS); format: in vivo, Xenopus tropicalis; settings: 10 min, MO- vs MOC-injected embryos, three biological replicates, p = 0.0062
Protocol: as §1
Batches of 100 NF42 embryos were collected in 500 µl 0.01 X MMR in a single well of a 24-well plate. […] MucXS in unfractionated or fractionated media was detected via slot blotting and subsequent immunodetection with an anti-MucXS antibody. Quantification of signal from slot blots was achieved using Fiji v2.14.0 software to capture the raw integrated density of pixels for each signal band. […]

[7] = system: human TMEM16Aabc; settings: whole-cell patch clamp ref 65; cited from earlier work
[8] = maximally-active current, 338 nM free [Ca2+]i (EC100), +70 mV, HEK293, mean ± SEM, read-out: IC50 X. tropicalis Tmem16a

X. tropicalis Tmem16a, sequence (W8PFC5 entry or part of it): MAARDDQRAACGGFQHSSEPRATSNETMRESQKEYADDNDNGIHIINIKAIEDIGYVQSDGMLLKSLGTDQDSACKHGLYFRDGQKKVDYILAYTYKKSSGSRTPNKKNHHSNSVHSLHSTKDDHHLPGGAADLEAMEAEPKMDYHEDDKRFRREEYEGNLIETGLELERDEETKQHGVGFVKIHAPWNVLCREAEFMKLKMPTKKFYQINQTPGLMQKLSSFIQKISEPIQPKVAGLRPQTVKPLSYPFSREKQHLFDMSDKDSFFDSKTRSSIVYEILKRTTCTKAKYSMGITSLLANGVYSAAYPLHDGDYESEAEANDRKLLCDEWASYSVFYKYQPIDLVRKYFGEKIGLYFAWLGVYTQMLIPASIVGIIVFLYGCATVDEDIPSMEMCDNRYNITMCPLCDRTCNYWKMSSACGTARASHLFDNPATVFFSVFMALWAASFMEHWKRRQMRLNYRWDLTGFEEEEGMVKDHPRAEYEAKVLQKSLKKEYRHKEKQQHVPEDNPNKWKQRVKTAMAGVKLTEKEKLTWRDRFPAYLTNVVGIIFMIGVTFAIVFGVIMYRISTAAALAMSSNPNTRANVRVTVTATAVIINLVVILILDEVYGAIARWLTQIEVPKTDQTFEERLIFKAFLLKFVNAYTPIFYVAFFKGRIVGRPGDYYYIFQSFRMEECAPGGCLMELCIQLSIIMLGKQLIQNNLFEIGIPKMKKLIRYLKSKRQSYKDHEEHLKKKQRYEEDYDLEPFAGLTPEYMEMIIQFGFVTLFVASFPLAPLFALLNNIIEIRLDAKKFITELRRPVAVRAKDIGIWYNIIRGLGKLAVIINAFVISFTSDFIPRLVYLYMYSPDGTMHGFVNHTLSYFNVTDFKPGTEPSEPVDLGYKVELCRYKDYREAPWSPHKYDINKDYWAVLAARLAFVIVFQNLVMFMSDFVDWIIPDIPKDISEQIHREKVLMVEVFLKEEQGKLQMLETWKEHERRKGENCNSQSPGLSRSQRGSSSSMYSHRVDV

O=C(O)c1ccc(/C=C2\SC(=S)N(c3cccc(C(F)(F)F)c3)C2=O)cc1 [CFTR Inh-172]
IC50 [1, 8]: > 30 µM

O=C(O)c1c2ccccc2cc2ccccc12 [9-AC]
IC50 ([2]; whole-cell patch clamp ref 60): 57.7 µM
IC50 [1, 8]: 146 ± 65.8 µM

[Ca+2] [intracellular calcium, calcium]
EC50 ([1]; free [Ca2+]i varied, fixed depolarisation voltage, read-out: EC50 of intracellular calcium for current conductance): 0.227 ± 0.043 µM

CCc1c(C)nc(SCC(=O)Nc2nc(-c3ccc(OC)cc3)cs2)[nH]c1=O [T16inh-A01]
IC50 ([2]; whole-cell patch clamp ref 60): 1.51 µM
IC50 ([2]; whole-cell patch clamp ref 63): > 30 µM
Direct inhibition of X. tropicalis Tmem16a channel function ([1]; maximal conductance, 338 nM free [Ca2+]i, +70 mV): did not directly inhibit
IC50 [1, 8]: > 30 µM

COc1cc(Nc2ccc([N+](=O)[O-])cc2C(=O)O)cc2ccccc12 [MONNA]
IC50 ([2]; whole-cell patch clamp ref 63): 13.6 µM
IC50 [1, 8]: 11.9 ± 3.45 µM

O=C(O)c1cccnc1Nc1cccc(C(F)(F)F)c1 [Niflumic acid]
IC50 ([2]; whole-cell patch clamp ref 60): 12.1 µM
IC50 ([2]; whole-cell patch clamp ref 61): 8.34 µM
IC50 ([2]; whole-cell patch clamp ref 63): 8.54 µM
IC50 [1]: 85.1 ± 19.1 µM

COC1=C(OC)C(=O)C(CCCCCCCCCCO)=C(C)C1=O [Idebenone]
% inhibition human TMEM16A by 10 µM ([3]; 10 µM, whole-cell patch clamp ref 61): 54%
% inhibition human TMEM16A by 30 µM ([3]; 30 µM, whole-cell patch clamp ref 61): 90%
IC50 [1, 8]: > 30 µM

CC(C)(C)C1CCc2c(sc(NC(=O)c3ccco3)c2C(=O)O)C1 (stereo not shown) [CaCCinhA01]
Block of background chloride current in sham transfects [4]: blocked
Block of large slowly-activating current in tmem16a-transfected cells ([1]; 100 µM CaCCinh-A01): sensitivity to block
IC50 [1, 8]: 12.9 ± 1.96 µM

tmem16a splice MO: antisense morpholino oligonucleotide 5'-AATGTTCATTCTTTTTACCTCTTCA-3' targeting donor splice site of exon 2 of tmem16a pre-mRNA (all phosphorodiamidate morpholino (PMO))
Tmem16a protein in the plasma membrane of SSCs in the tadpole skin [5]: complete loss
Increase of MucXS secretion from the tadpole skin [6]: 3 fold

CCc1oc2ccccc2c1C(=O)c1cc(Br)c(O)c(Br)c1 [Benzbromarone]
IC50 ([2]; whole-cell patch clamp ref 63): 4.09 µM
IC50 ([2]; whole-cell patch clamp ref 64): 2.35 µM
IC50 [7]: 3.05 µM
IC50 [1]: 3.3 ± 1.45 µM

COc1ccccc1/C=N/NC(=O)COc1ccc(Cl)cc1C [Ani9]
Block of large slowly-activating current in tmem16a-transfected cells ([1]; 10 µM Ani9): sensitivity to block
Inhibition of evoked Tmem16a current ([1]; 10 µM Ani9, 1 s step from -70 to +70 mV, 338 nM free [Ca2+]i): completely inhibited
Inhibition of Tmem16a current conductance at varied [Ca2+]i ([1]; 10 µM Ani9, all calcium concentrations, fixed depolarisation voltage): inhibited at all calcium concentrations
IC50 [1, 8]: 0.098 ± 0.009 µM
